# Patent US5279956A, “Activated protein C polypeptides and anti-peptide antibodies, diagnostic methods and systems for inhibiting activated protein C” (The Scripps Research Institute, priority 1991, dated 1994)
# No end group written: not given here.
# Assays:
# [1] = tested on: anti-(390-404) antibody; assay: Cross-competition ELISA: anti-(390-404) antibody binding to immobilized PC with fluid-phase competitors; design: species or system rabbit; details: fluid-phase competitor
# Protocol: FIG. 1 illustrates anti-(390-404) antibody binding to immobilized Protein C (PC) in the presence of fluid-phase PC, peptide-(390-404), -(404-390) and -K395A-(390-404). […] Before admixing 2 μg/ml anti-(390-404) antibody to PC-coated wells, the anti-(390-404) antibody was admixed with 0 to 200 μg/ml of either PC, 0 to 1000 μM peptide (-390-404), 0 to 1000 μM peptide-(404-390), or 0-200 μM peptide-K395A-(390-404) for 30 minutes at 37° C. Following biotinylated-goat-anti-rabbit-IgG and streptavidin-alkaline-phosphatase immunoreactions as described in Example 2c, bound anti-(390-404) antibody was detected by addition of 5 milligrams/milliliter (mg/ml) p-nitrophenylphosphate in 0.1M diethanolamine at pH 9.6 followed by measuring of the change in absorbance at 405 nm over time. The amount of anti-(390-404) specifically bound to PC coated wells in the absence of any competing protein was defined as 100%. […]
# The specificity of anti-(390-404) antibody for peptide-(390-404) and PC was confirmed by cross-competition binding experiments. […] Bound anti-(390-404) antibody to immobilized PC in the presence of competitors was detected as described in Example 2c.
# [2] = tested on: anti-(390-404) antibody; assay: Solid-phase ELISA: binding of anti-(390-404) antibody to immobilized peptides and PC; design: species or system rabbit
# Protocol: To determine the immunospecificity of the rabbit antisera obtained in Example 2b, ELISA assays were performed. Briefly, 50 μl of either 50 μM peptide-(390-404) prepared in Example 1 or 10 μg/ml of PC or APC prepared in Example 2c in a buffer consisting of 0.05M sodium carbonate (Na2 CO3) and 0.02% NaN3 at pH 9.0 were admixed into the wells of microtiter plates. The plates were maintained at 37° C. for one hour to permit the antigens to become operatively affixed to the well walls. After washing the antigen-coated wells with TBS, the wells were blocked with 250 μl/well of 10% bovine serum albumin (BSA) (Sigma) in TBS for one hour at 22° C. The blocking solution was then removed and the wells were subsequently washed five times with 250 μl/well of maintenance buffer (0.05M Tris-HCl, 0.1M NaCl, 0.02% NaN3, 1 mg/ml BSA, 5 mM CaCl2, 0.01% Tween 20 at pH 7.4). Fifty μl of rabbit non-immune or specific antiserum serially diluted in maintenance buffer was then admixed to the washed wells and maintained for one hour at 37° C. to allow formation of a solid liquid phase immunoreaction products. The wells were then washed three times with maintenance buffer followed by admixture of 50 μl of 2.0 μg/ml of secondary antibody (polyclonal biotinylated goat-anti-rabbit-IgG) (Pierce Biochemicals) diluted in maintenance buffer to each well for the detection of immunoreactant products. The plates were maintained for 1 hour at 37° C. after which time the secondary antibody solution was removed. After washing the wells as described above, 50 μl of 2.0 μg/ml streptavidin-alkaline-phosphatase (Pierce Biochemicals) in maintenance buffer was admixed into each well and maintained for 30 minutes at 37° C. Detection of specific immunoreaction products was obtained by admixture of 150 μl/well of 5 mg/ml p-nitrophenylphosphate (PNPP) (Pierce Biochemicals) in 0.1M diethanolamine and 0.02% NaN3 at pH 9.6 followed by measurement of the change in absorbance at 405 nm over time using the EL312 Microplate Bio-Kinetics Reader and the KinetiCalc Software Program (Biotek Instruments, Inc., Vt.). Non-specific binding was considered as the measured absorbance in 10% BSA blocked wells which served as negative controls without the preceding coating of a specific protein or peptide. Under the described conditions, non-specific binding never exceeded more than 5% of the specific binding.
# The specificity of immunoaffinity purified anti-(390-404) antibody towards peptide-(390-404) and PC was evaluated by measuring the binding in solid-phase ELISA of the antibody to immobilized peptides including -(384-398), -(390-404), -(396-410), -(404-390), and -K395A-(390-404) listed in Table 1 with their corresponding SEQ ID NO, and to PC. […]
# [3] = biological target: T1, APC (Homo sapiens, UniProt P04070); assay: APC anticoagulant activity, APTT and Xa-1-stage coagulation assays (mean or both); assay type: biochemical; details: measured at 36 μM peptide
# T1 construct: begins at amino acid residue position 158 and ends at 419; The light chain is 155 amino acid residues in length; tissue Factor IX concentrate from Immuno AG, Vienna; thrombin from Enzyme Research Laboratories
# T1 sequence (P04070 212-461): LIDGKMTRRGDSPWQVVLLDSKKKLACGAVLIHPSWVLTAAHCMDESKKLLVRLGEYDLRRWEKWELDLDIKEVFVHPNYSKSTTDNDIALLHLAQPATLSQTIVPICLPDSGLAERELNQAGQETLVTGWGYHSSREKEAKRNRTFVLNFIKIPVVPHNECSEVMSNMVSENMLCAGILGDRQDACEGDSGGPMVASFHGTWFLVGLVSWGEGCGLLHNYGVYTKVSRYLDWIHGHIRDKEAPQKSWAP
# T1 sequence (P04070 43-197): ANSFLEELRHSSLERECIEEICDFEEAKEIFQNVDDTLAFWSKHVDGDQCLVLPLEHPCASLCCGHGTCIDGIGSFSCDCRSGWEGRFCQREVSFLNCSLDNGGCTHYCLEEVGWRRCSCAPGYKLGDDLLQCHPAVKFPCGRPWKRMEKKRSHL
# Protocol: The effect of the synthetic peptides on APC anticoagulant activity were determined using the APTT assay in the presence of either normal citrate anticoagulated plasma (NHP) or protein S depleted plasma (PSDP). The assays were performed essentially as described. See Marlar et al., Blood, 59:1067-1072 […]; Suzuki et al., J. Biol. Chem., 258:163-168 (1983); Gruber et al., Blood, 73:639-642 (1989); Ohlin et al., Biochem., 29:644-651 (1990). NHP was purchased from George King Bio-Medical, Inc. (Overland Park, Kans.). PSDP was prepared from a normal human citrate-anticoagulated plasma pool from ten healthy donors. Protein S was immunodepleted from the NHP by immunoaffinity chromatography of NHP over an anti-protein S antibody column to form PSDP. The anti-protein S antibody column was prepared by coupling 100 mg of a monoclonal, high-affinity, calcium-independent anti-PS antibody, designated S7, to 30 ml of CNBr-activated Sepharose 4B (Pharmacia) as described in Example 2c1).
# For the APTT assay, APC was prepared as described in Example 2c2). […] The concentration of the APC used in the assay was initially optimized with respect to the sensitivity of the assay towards APC-induced prolongation of clotting time compared to clotting time without APC.
# Once the optimal concentration of APC was determined, peptides from Table 2 were then separately admixed for a final concentration of 500 μM with 10 nM APC in 100 μl of TBS-BSA at pH 7.4 to form peptide-APC admixtures. The resulting admixtures were maintained for seven minutes at 37° C. Separate aliquots of peptides maintained under the same conditions in the absence of APC served as controls for the inhibitory effect of synthetic peptides on APC anticoagulant activity. After the maintenance period, 100 μl of NHP and 100 μl APTT-reagent Thrombosil (Ortho Diagnostics, Raritan, N.J.) were admixed into each peptide admixture and maintained for 200 seconds at 37° C. to form a pre-coagulation admixture. In some experiments, PSDP was used in the place of NHP to determine the effect of Protein S on the assay system. Coagulation was then initiated by the admixture of 100 μl of 30 mM CaCl2 in TBS prewarmed to 37° C. to each of the pre-coagulation admixtures. The time for clot formation was measured by an Electra 700 Automatic Coagulation Timer (Medical Laboratory Automation, Inc., Mount Vernon, N.Y.). Each peptide's effect was determined in duplicate.
# The synthetic peptides listed in Table 4 are presented in the same order as listed in Table 2, i.e., are reproduced from Table 2. […] For peptides at a concentration of 500 μM that inhibited at least 50% of APC anticoagulant activity, analysis of dose-response was subsequently conducted. The column in Table 4 labeled "Inhibition of APC" represents the inhibition of APC anticoagulant activity measured with 500 μM peptide.
# For testing the inhibition of the synthetic peptides on APC activity described above, Xa-1-stage coagulation assays were also performed as described. See Seegers et al., Thrombosis Res., 13:233-243 (1978); Marlar et al., supra; and Walker et al., J. Biol. Chem. 265:1484-1489 (1990).
# [4] = Solubility of peptide in buffer solutions; assay type: physicochemical; details: concentrations higher than 36 μM
# Protocol: Purified peptides were separately resuspended in distilled water to form a dissolved peptide solution at a final concentration of 2.5 mM. Subsequently, […] containing 0.05M Tris hydroxymethyl aminomethanehydrochloride (Tris-HCl) at pH 7.4 (TBS-Az) 0.1M sodium chloride (NaCl), 0.02% sodium azide (NaN3). The pH of the solution was checked, and if necessary, adjusted to pH 7.4 with titrated amounts of 1M Tris-base. For peptides that appeared to be not completely soluble at 2.5 mM in TBS-Az, the partially dissolved peptide suspensions separately were centrifuged at 13,000×g to pellet the insoluble material. The molar concentrations in the resultant individual supernatants were estimated from the absorbance at 280 nm and 257 nm, respectively, for peptide solutions containing aromatic amino acids using a molar extinction coefficient of 5,600 M^-1 cm^-1 for tryptophan and 1,400 M^-1 cm^-1 for tyrosine at 280 nm, using a molar extinction coefficient of 200 M^-1 cm^-1 for phenylalanine at 257 nm. Peptides without aromatic amino acids and poor solubility in aqueous solutions were not evaluated in this invention.
competition with binding of anti-(390-404) antibody to immobilized PC [1],"IC50 ([1]; 2 μg/ml antibody, 10 μg/ml PC coated, read-out: Half-maximal inhibition of anti-(390-404) antibody binding to immobilized PC) [nM]",binding of anti-(390-404) antibody to immobilized peptide or PC ([2]; solid-phase ELISA),"Anti-(390-404) (Absorbance/20 min.) ([2]; wells coated with 50 μM peptide or 10 μg/ml PC, 2 μg/ml anti-(390-404) antibody, mean of duplicates)",inhibition at 36 µM [3] [%],Substance,solubility in buffer solutions [4]
competed significantly,~9.2,Significant immunoreactivity,249,,Protein C: human Protein C zymogen immunoaffinity-purified from plasma factor IX concentrate,
,,,,23,"YGVYTAVSRYLDWIH-NH2 [peptide-K395A-(390-404), YGVYTAVSRYLDWIH]",limitations of solubility in buffer solutions
